We go through 2 compounds from PMC10643130, “Molecular basis for selective uptake and elimination of organic anions in the kidney by OAT1” (Nature Structural & Molecular Biology, 2023).

Structures are written as SMILES. Where a chain is given by its changes, count along the chain named. Read-outs that look alike come from different tables or passages of the source.

One data set has as its system OAT3. The note with it: cited from earlier work.
Another data set deals with URAT1. To be noted: cited from earlier work.
In a further data set the test system is OAT2. To be noted: cited from earlier work.
Data set [1] deals with T1, human OAT1 Gly227Ala (G227A) (Homo sapiens, UniProt Q4U2R8, G227A).
T1 sequence (Q4U2R8 1-563 G227A): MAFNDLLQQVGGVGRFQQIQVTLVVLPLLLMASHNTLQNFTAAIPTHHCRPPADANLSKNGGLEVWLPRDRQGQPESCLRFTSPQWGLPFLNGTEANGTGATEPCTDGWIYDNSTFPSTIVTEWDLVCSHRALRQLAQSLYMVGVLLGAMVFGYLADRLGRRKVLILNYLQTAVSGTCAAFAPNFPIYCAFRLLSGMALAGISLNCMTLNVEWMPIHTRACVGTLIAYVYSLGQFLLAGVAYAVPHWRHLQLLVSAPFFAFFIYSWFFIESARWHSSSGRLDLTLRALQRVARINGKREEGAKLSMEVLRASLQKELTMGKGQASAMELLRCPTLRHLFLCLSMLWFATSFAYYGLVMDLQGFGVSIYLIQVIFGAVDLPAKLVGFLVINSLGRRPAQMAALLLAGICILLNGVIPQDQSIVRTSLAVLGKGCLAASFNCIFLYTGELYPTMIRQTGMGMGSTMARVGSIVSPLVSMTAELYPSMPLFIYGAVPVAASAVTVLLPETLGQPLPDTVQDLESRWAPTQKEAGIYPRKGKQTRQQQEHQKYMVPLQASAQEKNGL
In words: cell-based.

For data set [2], the target named is T2, human OAT1 Tyr230Phe (Y230F) (Homo sapiens, UniProt Q4U2R8, Y230F).
T2 sequence (Q4U2R8 1-563 Y230F): T1 sequence (Q4U2R8 1-563 G227A) with A227G, Y230F
The experiment in a line: Cell-based 6-CF transport assay, HsOAT1 Tyr230Phe mutant. To be noted: 8 min.

Data set [3] has as its target T3, OAT1 Ser350Ala (S350A) mutant, human (Homo sapiens, UniProt Q4U2R8, S350A).
T3 sequence (Q4U2R8 1-563 S350A): T1 sequence (Q4U2R8 1-563 G227A) with A227G, S350A
The experiment in a line: Cell-based 6-CF transport assay, HsOAT1 Ser350Ala mutant. The note with it: pH 7.2, probe 6-carboxyfluorescein (6-CF), 10 μM 6-CF, HeLa cells, mean ± s.d.

Data set [4] deals with T4, wild-type human OAT1 (HsOAT1) (Homo sapiens, UniProt Q4U2R8).
T4 sequence (Q4U2R8 1-563): T1 sequence (Q4U2R8 1-563 G227A) with A227G
In words: cell-based.
Description: (§1) To assay HsOAT1 transporter activity the model substrate 6-carboxyfluorescein (6-CF)[46],[47]
(§2) For transport assays, 1 × 10^5 cells per well were seeded into 24-well plates and 24 h later transfected using FUGENE HD (Promega E2311) Transfection Reagent (0.4 μg DNA per 1 μl of FUGENE per well) with HsOAT1 constructs containing a C-terminal FLAG tag in the vector pCDNA3.1 for 36 h. Expression of each mutant of HsOAT1 was assessed through western blotting on membrane fractions using an anti-FLAG antibody 1:3,000 dilution (Merck F1804), using a loading control of anti-β-actin 1:5,000 dilution (Merck A2228) (Extended Data Fig. 4). […] Background fluorescence was subtracted from cells transfected with the empty plasmid, and the data were normalized to 100%. To assess the activity of HsOAT1 in the presence and absence of chloride, the buffer was 120 mM NaCl, 28 mM glucose and 25 mM HEPES, pH 7.2 or for chloride-free conditions, and 120 mM sodium gluconate was used. […] To study the effect of ligands or inhibitors, the compound of interest was added to the assay buffer at the desired concentration. […] Each concentration was repeated three times to calculate standard errors, and the whole experiment was repeated three times to calculate the mean IC50 and standard error.

Data set [5] concerns the target T4, wild-type human OAT1 (HsOAT1). The experiment in a line: Cell-based 6-CF transport assay, wild-type HsOAT1 in HeLa cells.
Description: as §1, §2
Where [6] appears, read: 8 min, read-out: 6-CF uptake, Mean.

Turning to `CCCN(CCC)S(=O)(=O)c1ccc(C(=O)O)cc1` [probenecid], in the data set with OAT3, the “inhibition of OAT3” value is given as “inhibitor”. Besides, the “inhibition of URAT1” value with URAT1 is reported as “inhibitor”. The “inhibition of OAT2” value with OAT2 is “poor inhibitor”.
For the compound `C[C@H](Cn1cnc2c(N)ncnc21)OCP(=O)(O)O` [tenofovir], the remaining activity at 1 µM in data set [1] (setting [6]) came to 99.8%; in data set [2] (read-out: 6-CF uptake, Mean), 99%. Further, the remaining activity at 2 µM in data set [1] (setting [6]) is 82.7%; in data set [2] (read-out: 6-CF uptake, Mean) it was 95.2%. Also, the remaining activity at 2.30103 µM in data set [1] (setting [6]) came to 69.5%; in data set [2] (read-out: 6-CF uptake, Mean), 87%. Moreover, the remaining activity at 2.60206 µM was found to be 40.3% in data set [1] (setting [6]) and 68.5% in data set [2] (read-out: 6-CF uptake, Mean). The remaining activity at 3 µM in data set [1] (setting [6]) stood at 31.2%; in data set [2] (read-out: 6-CF uptake, Mean), 52.3%. Also, the remaining activity at 3.17609 µM in data set [1] (setting [6]) was determined as 15.6%; in data set [2] (read-out: 6-CF uptake, Mean), 35%. Moreover, the “effect of Gly227Ala mutant on tenofovir recognition” value in data set [1] (versus wild type, Fig. 2f) is recorded as “no discernible effect”. Besides, the IC50 in data set [2] (Tyr230Phe, 10 μM 6-CF, HeLa cells, mean ± s.d.) was 450 ± 26 µM; in data set [4] it was 120 ± 19 µM. Besides, in data set [3], the IC50 at 8 min was found to be 241 ± 11 µM. For the same compound, the “6-CF uptake, MEAN” value in data set [5] turned out to be 99%; in data set [5] (WT Tenofovir, uM column 2), 79%; in data set [5] (WT Tenofovir, uM column 2.30103), 65%; in data set [5] (WT Tenofovir, uM column 2.60206), 35%; in data set [5] (WT Tenofovir, uM column 3), 24%; in data set [5] (WT Tenofovir, uM column 3.17609), 12%.
